Results from US4734410A, “Lactam derivatives and their use as hypotensive agents” (Sankyo Company Limited, priority 1985, dated 1988).

Legend:
[1] = tested on: angiotensin I-induced hypertension; experiment: inhibitory effect on angiotensin I-induced hypertension in vivo after oral administration to rats
Method: In addition, the compounds of Examples 2, 3, 7, 10 and 12 were tested in vivo. Each of these test compounds was administered orally to rats and its inhibitory effect on angiotensin I-induced hypertension was determined.

[2] = target: T1, ACE (Oryctolagus cuniculus, UniProt P12822); experiment: in vitro inhibition of ACE (procedure of D. W. Cushman et al., hippurylhistidylleucine substrate); type: biochemical; details: ACE extracted from rabbit lungs, pH 8.3, 37° C., 30 minutes, hippuric acid at 228 nm
T1 construct: ACE extracted from rabbit lungs; from tissue; host or cells: rabbit lung
T1 sequence (P12822 34-1310): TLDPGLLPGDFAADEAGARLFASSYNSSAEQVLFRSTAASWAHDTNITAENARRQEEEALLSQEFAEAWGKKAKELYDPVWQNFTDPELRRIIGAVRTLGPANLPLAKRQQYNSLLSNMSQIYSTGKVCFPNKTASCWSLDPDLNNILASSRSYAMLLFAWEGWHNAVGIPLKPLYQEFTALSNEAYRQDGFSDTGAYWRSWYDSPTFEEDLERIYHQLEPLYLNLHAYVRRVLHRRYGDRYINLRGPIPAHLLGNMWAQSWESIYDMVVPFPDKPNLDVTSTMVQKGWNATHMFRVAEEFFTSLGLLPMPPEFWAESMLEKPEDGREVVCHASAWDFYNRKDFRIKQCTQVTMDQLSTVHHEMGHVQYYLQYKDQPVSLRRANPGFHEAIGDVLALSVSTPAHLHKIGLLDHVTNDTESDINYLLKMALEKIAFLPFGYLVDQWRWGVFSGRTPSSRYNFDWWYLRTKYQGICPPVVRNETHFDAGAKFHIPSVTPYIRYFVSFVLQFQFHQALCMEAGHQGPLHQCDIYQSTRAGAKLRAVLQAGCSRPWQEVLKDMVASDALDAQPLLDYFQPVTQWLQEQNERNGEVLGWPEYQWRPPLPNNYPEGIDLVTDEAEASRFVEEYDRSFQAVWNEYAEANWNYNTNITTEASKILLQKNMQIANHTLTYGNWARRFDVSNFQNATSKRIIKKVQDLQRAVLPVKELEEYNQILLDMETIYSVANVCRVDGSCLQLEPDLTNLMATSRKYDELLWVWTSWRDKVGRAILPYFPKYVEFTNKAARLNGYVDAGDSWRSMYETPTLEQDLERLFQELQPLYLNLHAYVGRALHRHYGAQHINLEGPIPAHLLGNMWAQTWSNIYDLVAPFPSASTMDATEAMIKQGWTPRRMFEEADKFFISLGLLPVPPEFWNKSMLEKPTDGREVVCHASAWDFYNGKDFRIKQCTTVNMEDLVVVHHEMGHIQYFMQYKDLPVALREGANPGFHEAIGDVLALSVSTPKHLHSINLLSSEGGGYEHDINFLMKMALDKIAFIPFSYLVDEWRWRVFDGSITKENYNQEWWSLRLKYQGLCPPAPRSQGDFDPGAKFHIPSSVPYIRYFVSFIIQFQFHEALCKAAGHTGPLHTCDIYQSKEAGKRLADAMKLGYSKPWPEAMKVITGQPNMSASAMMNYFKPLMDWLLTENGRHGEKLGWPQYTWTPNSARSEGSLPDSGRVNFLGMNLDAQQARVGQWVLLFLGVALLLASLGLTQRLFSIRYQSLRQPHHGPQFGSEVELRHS
Text: As noted above, the compounds of the present invention have the ability to inhibit the activity of ACE, the enzyme which converts angiotensin I to angiotensin II and also inactivates bradykinin. The physiological activity of the compounds of the invention can be evaluated by determining the concentration of the test compound required to inhibit the activity of ACE by 50% in vitro (IC50), for example by the procedure of D. W. Cushman et al. [Biochemical Pharmacology, 20, 1637 (1971)]. Specifically, solutions of ACE extracted from rabbit lungs and, as substrate, hippurylhistidylleucine, to which had been added the test compound at various concentrations, were added to a borate buffer solution containing sodium chloride, and the pH was adjusted to a value of 8.3. The enzymatic reaction was allowed to proceed at 37° C. for 30 minutes, after which time the reaction was terminated by adding 1N aqueous hydrochloric acid. The hippuric acid formed by this reaction was extracted with ethyl acetate and the solvent was then distilled from the extract. The residual hippuric acid was dissolved in water. The amount of hippuric acid in the resulting aqueous solution was determined by the absorbency to ultraviolet radiation at 228 nm. The resulting values were then plotted to form a curve indicating the relationship between the amount of hippuric acid formed and the concentration of the test compound. The IC50 value can be obtained by reading on this curve the concentration of the test compound which reduces the amount of hippuric acid formed to one half of that formed when no test compound is present.

| SMILES | inhibitory effect on angiotensin I-induced hypertension [1] | IC50 [2] [nM] |
| --- | --- | --- |
| CCOC(=O)[C@H](CCc1ccccc1)N[C@H]1CC[C@H](c2ccccc2)CN(CC(=O)O)C1=O.Cl (single isomer, unassigned) [Example 2] | strong and lasting inhibitory effects | – |
| CCOC(=O)[C@H](CCc1ccccc1)N[C@H]1CC[C@@H](c2ccccc2)CN(CC(=O)O)C1=O.Cl (single isomer, unassigned) [Example 3] | strong and lasting inhibitory effects | – |
| O=C(O)CN1C[C@@H](c2ccccc2)CC[C@H](N[C@@H](CCc2ccccc2)C(=O)O)C1=O (single isomer, unassigned) [Test Compound A] | – | 1.4 |
| O=C(O)CN1C[C@H](c2ccccc2)CC[C@H](N[C@@H](CCc2ccccc2)C(=O)O)C1=O (single isomer, unassigned) [Test Compound B] | – | 2 |
| CCOC(=O)[C@H](CCc1ccccc1)N[C@H]1CC[C@H](c2ccc(F)cc2)CN(CC(=O)O)C1=O.Cl [Example 7, α-{3(S)-[1(S)-Ethoxycarbonyl-3-phenylpropylamino]-6(R)-(p-fluorophenyl)-2-oxoperhydroazepin-1-yl}acetic acid hydrochloride] | strong and lasting inhibitory effects | – |
| CCCCOC(=O)[C@H](CCc1ccccc1)N[C@H]1CC[C@H](c2ccc(F)cc2)CN(CC(=O)O)C1=O.Cl [Example 10, α-{3(S)-[1(S)-Butoxycarbonyl-3-phenylpropylamino]-6(R)-(p-fluorophenyl)-2-oxoperhydroazepin-1-yl}acetic acid hydrochloride] | strong and lasting inhibitory effects | – |
| CCCCOC(=O)[C@H](CCc1ccccc1)N[C@H]1CC[C@H](c2ccccc2)CN(CC(=O)O)C1=O.Cl [Example 12, α-{3(S)-[1(S)-Butoxycarbonyl-3-phenylpropylamino]-2-oxo-6(R)-phenylperhydroazepin-1-yl}acetic acid hydrochloride] | strong and lasting inhibitory effects | – |
| O=C(O)CN1C[C@@H](c2ccc(F)cc2)CC[C@H](N[C@@H](CCc2ccccc2)C(=O)O)C1=O [Test Compound C, α-{3(S)-[1(S)-carboxy-3-phenylpropylamino]-6(R)-(p-fluorophenyl)-2-oxoperhydroazepin-1-yl}acetic acid] | – | 1.7 |
